Key:
Assay in all cases: relative viability (nuclei count vs DMSO), 5 days (fraction); higher = more cells survive
DM3189 + Bortezomib = compound: C1CN(CCN1)C2=CC=C(C=C2)C3=CN4C(=C(C=N4)C5=CC=NC6=CC=CC=C56)N=C3 [DM3189] + CC(C)C[C@H](NC(=O)[C@H](Cc1ccccc1)NC(=O)c1cnccn1)B(O)O [Bortezomib] (partner 0.002 µM)
Summary of the method: (§1)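 Lung cancer cell lines in 1536-well plates were dosed by pin tool the day after seeding, either with one drug alone or with a fixed anchor-drug dose plus five library-drug doses (not always all listed) in √10 steps. After 5 days, cells were fixed and their nuclei stained in one step (final 0.05% Triton X-100, 1% formaldehyde, 1 ug/ml Hoechst), then counted on 4× images. Relative viability is the nuclei count in treated wells divided by that in vehicle wells. Values are medians of duplicate plates.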

DM3189 + Luminespib = compound: C1CN(CCN1)C2=CC=C(C=C2)C3=CN4C(=C(C=N4)C5=CC=NC6=CC=CC=C56)N=C3 [DM3189] + CCNC(=O)c1noc(-c2cc(C(C)C)c(O)cc2O)c1-c1ccc(CN2CCOCC2)cc1 [Luminespib] (partner 0.01 µM)
Summary of the method: as §1

DM3189 + Foretinib = compound: C1CN(CCN1)C2=CC=C(C=C2)C3=CN4C(=C(C=N4)C5=CC=NC6=CC=CC=C56)N=C3 [DM3189] + COc1cc2c(Oc3ccc(NC(=O)C4(C(=O)Nc5ccc(F)cc5)CC4)cc3F)ccnc2cc1OCCCN1CCOCC1 [Foretinib] (partner 0.25 µM)
Summary of the method: as §1

DM3189 + Tozasertib = compound: C1CN(CCN1)C2=CC=C(C=C2)C3=CN4C(=C(C=N4)C5=CC=NC6=CC=CC=C56)N=C3 [DM3189] + Cc1cc(Nc2cc(N3CCN(C)CC3)nc(Sc3ccc(NC(=O)C4CC4)cc3)n2)n[nH]1 [Tozasertib] (partner 0.1 µM)
Summary of the method: as §1

DM3189 + Vorinostat = compound: C1CN(CCN1)C2=CC=C(C=C2)C3=CN4C(=C(C=N4)C5=CC=NC6=CC=CC=C56)N=C3 [DM3189] + O=C(CCCCCCC(=O)Nc1ccccc1)NO [Vorinostat] (partner 1 µM)
Summary of the method: as §1

Cell Line	relative viability (DM3189 + Bortezomib; first compound 0.08 µM)	relative viability (DM3189 + Bortezomib; first compound 0.253 µM)	relative viability (DM3189 + Bortezomib; first compound 0.8 µM)	relative viability (DM3189 + Bortezomib; first compound 2.53 µM)	relative viability (DM3189 + Luminespib; first compound 0.08 µM)	relative viability (DM3189 + Luminespib; first compound 0.253 µM)	relative viability (DM3189 + Luminespib; first compound 0.8 µM)	relative viability (DM3189 + Luminespib; first compound 2.53 µM)	relative viability (DM3189 + Foretinib; first compound 0.08 µM)	relative viability (DM3189 + Foretinib; first compound 0.253 µM)	relative viability (DM3189 + Foretinib; first compound 0.8 µM)	relative viability (DM3189 + Foretinib; first compound 2.53 µM)	relative viability (DM3189 + Tozasertib; first compound 0.08 µM)	relative viability (DM3189 + Tozasertib; first compound 0.253 µM)	relative viability (DM3189 + Tozasertib; first compound 0.8 µM)	relative viability (DM3189 + Tozasertib; first compound 2.53 µM)	relative viability (DM3189 + Vorinostat; first compound 0.08 µM)	relative viability (DM3189 + Vorinostat; first compound 0.253 µM)	relative viability (DM3189 + Vorinostat; first compound 0.8 µM)	relative viability (DM3189 + Vorinostat; first compound 2.53 µM)
PC-3 [JPC-3]	1	0.869	0.849	0.785	0.725	0.705	0.694	0.512	1.09	1.1	0.993	1.08	0.84	0.968	0.848	0.774	1.08	0.736	0.921	0.898
PC-14	0.832	0.885	0.832	0.812	0.161	0.154	0.152	0.154	1.02	0.985	0.876	1.07	0.547	0.522	0.567	0.606	0.733	0.7	0.674	0.533
RERF-LC-KJ	1.61	1.21	1.15	1.26	1.37	1.3	1.46	1.19	1.03	0.904	0.927	0.97	0.533	0.456	0.466	0.43	0.858	0.729	0.661	0.715
SK-LU-1	1.24	0.882	0.738	0.7	0.181	0.194	0.176	0.196	0.77	0.66	0.492	0.479	0.241	0.204	0.248	0.219	0.742	0.749	0.728	0.598
SW 1573	1.16	0.869	1	0.82	0.261	0.232	0.192	0.33	1	0.737	1.05	0.99	0.212	0.171	0.142	0.153	0.786	0.761	0.633	0.337
UMC-11	0.863	0.635	0.769	0.397	1.01	0.986	0.882	0.685	1.01	0.975	0.988	1.02	0.189	0.201	0.199	0.21	0.356	0.349	0.358	0.281

Reference: the supplement of paper PMC10307832
